{
  "source": "ChEMBL document CHEMBL4177572",
  "about": "“Recent advances in JAK3 inhibition: Isoform selectivity by covalent cysteine targeting” (Bioorg Med Chem Lett, 2017)",
  "key": {"[1]": {"target": "T1, Tyrosine-protein kinase JAK3 (Homo sapiens) (UniProt P52333)", "T1 sequence (whole entry)": "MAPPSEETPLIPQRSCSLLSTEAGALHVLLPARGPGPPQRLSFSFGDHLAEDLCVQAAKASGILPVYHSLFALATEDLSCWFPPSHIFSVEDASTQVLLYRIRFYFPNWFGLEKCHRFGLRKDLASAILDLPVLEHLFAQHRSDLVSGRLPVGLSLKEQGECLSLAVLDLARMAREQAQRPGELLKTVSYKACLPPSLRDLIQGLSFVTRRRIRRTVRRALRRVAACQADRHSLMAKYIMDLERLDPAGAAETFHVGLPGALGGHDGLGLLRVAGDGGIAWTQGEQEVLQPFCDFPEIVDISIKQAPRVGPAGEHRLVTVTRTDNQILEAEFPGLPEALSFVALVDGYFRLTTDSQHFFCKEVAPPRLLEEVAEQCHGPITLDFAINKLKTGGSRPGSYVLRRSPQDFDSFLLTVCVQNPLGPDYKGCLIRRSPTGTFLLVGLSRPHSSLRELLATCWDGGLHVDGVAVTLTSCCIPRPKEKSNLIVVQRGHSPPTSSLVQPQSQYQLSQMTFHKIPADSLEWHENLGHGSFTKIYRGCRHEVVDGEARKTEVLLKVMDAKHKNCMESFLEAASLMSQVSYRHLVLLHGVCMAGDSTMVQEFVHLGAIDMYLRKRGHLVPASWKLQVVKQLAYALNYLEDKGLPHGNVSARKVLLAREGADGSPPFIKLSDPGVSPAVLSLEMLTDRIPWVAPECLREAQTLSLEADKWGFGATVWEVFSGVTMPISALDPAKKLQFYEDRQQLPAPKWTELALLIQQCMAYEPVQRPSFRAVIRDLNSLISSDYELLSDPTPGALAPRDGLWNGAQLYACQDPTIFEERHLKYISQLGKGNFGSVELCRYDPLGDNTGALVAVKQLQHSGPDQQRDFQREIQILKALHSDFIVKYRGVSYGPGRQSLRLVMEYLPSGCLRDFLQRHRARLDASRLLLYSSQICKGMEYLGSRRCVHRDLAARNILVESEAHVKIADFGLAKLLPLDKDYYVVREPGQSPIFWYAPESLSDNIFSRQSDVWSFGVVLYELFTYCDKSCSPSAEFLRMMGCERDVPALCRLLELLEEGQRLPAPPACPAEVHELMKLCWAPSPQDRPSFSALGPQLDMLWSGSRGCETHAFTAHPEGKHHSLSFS", "assay": "Binding affinity to JAK3 (unknown origin) assessed as dissociation half life"}, "[2]": {"target": "Tyrosine-protein kinase JAK2 (Homo sapiens, UniProt O60674)", "sequence (O60674 whole entry, the tested form may be a part)": "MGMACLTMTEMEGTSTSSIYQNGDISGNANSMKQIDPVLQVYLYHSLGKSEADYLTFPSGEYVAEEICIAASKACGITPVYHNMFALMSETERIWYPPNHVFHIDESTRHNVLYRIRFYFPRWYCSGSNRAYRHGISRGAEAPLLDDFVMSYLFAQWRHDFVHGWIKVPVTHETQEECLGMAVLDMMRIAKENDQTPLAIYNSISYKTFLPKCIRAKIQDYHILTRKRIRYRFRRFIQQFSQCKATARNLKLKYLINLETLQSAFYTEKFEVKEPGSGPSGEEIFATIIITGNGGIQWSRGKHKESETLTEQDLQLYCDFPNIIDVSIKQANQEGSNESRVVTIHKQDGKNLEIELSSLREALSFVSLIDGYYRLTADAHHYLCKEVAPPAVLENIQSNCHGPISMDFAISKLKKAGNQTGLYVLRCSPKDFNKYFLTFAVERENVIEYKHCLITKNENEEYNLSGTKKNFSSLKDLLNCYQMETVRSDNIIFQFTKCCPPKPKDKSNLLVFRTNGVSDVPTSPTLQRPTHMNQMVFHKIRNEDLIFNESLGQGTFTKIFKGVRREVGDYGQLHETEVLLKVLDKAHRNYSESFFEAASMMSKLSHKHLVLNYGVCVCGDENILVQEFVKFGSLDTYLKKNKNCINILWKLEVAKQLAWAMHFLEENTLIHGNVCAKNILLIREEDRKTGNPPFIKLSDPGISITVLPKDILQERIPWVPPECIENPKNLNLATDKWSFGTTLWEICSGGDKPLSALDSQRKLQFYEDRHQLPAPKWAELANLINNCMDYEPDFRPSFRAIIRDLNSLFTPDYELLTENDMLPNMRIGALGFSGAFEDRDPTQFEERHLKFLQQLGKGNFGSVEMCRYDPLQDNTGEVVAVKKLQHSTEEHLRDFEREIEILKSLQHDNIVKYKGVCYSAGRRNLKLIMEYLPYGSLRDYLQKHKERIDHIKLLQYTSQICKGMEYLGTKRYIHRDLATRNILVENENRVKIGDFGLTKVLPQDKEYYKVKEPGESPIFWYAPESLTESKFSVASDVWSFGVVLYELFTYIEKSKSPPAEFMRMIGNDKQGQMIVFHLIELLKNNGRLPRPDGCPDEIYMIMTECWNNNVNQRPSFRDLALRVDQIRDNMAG", "assay": "Time-dependent inhibition of recombinant human N-terminal His-tagged JAK2 (826 to 1132 residues) expressed in sf21 cells using biotinylated peptide substrate after 1 hr by DELFIA"}, "Homo sapiens [3]": {"species": "Homo sapiens", "assay": "Selectivity ratio of IC50 for JAK1 (unknown origin) to IC50 for JAK3 (unknown origin)"}, "Homo sapiens [4]": {"species": "Homo sapiens", "assay": "Selectivity ratio of IC50 for JAK2 (unknown origin) to IC50 for JAK3 (unknown origin)"}, "Homo sapiens [5]": {"species": "Homo sapiens", "assay": "Selectivity ratio of IC50 for TYK2 (unknown origin) to IC50 for JAK3 (unknown origin)"}, "[6]": {"target": "Tyrosine-protein kinase JAK1/JAK3 (Mus musculus, UniProt P52332+Q62137)", "assay": "Inhibition of JAK3/JAK1 in mouse CTLL-2 cells assessed as reduction in IL2-stimulated STAT5 phosphorylation", "type": "cell-based"}, "JAK3/JAK1 [7]": {"target": "T2, JAK3/JAK1 (Homo sapiens, UniProt P23458+P52333)", "T2 sequence (P23458 whole entry, one chain of several)": "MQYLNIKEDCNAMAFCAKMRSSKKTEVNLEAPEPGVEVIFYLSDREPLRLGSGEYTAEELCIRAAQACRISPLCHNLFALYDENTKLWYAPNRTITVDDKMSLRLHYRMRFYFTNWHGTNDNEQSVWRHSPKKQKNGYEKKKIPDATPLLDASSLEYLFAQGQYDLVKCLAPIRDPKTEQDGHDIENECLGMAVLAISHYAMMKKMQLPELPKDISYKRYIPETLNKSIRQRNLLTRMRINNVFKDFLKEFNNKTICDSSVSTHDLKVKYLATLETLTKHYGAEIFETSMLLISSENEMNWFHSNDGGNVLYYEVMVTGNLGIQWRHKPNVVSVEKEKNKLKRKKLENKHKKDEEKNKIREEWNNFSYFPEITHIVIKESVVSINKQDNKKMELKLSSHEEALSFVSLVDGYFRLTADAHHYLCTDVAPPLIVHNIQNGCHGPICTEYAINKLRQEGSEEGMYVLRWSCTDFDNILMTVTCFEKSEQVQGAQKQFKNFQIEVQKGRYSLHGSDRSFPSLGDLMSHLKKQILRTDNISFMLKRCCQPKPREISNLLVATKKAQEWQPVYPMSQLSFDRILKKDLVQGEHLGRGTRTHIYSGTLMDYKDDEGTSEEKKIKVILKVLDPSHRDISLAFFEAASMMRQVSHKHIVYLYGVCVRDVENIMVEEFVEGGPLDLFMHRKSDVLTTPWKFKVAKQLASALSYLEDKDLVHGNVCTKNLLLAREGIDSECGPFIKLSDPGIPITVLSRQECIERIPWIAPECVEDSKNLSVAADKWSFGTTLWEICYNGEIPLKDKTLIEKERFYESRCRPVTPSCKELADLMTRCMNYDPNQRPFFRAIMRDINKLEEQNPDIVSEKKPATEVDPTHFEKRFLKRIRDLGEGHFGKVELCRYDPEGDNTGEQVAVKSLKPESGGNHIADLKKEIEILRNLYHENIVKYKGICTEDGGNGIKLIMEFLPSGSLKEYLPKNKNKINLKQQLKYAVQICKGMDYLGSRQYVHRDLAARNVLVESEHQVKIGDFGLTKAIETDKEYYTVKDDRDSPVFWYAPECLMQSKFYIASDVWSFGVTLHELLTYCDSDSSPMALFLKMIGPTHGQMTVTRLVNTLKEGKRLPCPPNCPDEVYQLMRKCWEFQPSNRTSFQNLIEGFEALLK", "assay": "Inhibition of JAK1/JAK3 in human PBMC CD3+/CD8+ T cells assessed as reduction in IL7-stimulated STAT5 phosphorylation"}, "JAK3/JAK1 [8]": {"target": "T2, JAK3/JAK1", "assay": "Inhibition of JAK1/JAK3 in human whole blood CD3+/CD4+ T cells assessed as reduction in IL7-stimulated STAT5 phosphorylation"}, "[9]": {"assay": "Half life in rat", "type": "ADME, organism-based", "conditions": "in vivo"}},
  "note": "pIC50: −log10 of the molar value.",
  "data": [
    {"smiles": "CN(C)C(=O)/C(C#N)=C/c1ccc(Nc2cnc3[nH]cc(C(=O)C(C)(C)C)c3n2)cc1", "values": [
      {"measurement": "T1/2", "setting": "[1]", "result": 9, "unit": "h"}
    ]},
    {"smiles": "C=CC(=O)Nc1ccc2ncn(-c3cncc(NC(C)(C)C)n3)c2c1", "values": [
      {"measurement": "pIC50", "setting": "[2]", "result": 7.40}
    ]},
    {"smiles": "c1nc(-c2cn(CC3CO3)nn2)c2cc[nH]c2n1", "note": "(centres undefined)", "values": [
      {"measurement": "Ratio IC50", "setting": "Homo sapiens [3]", "result": 70},
      {"measurement": "Ratio IC50", "setting": "Homo sapiens [4]", "result": 70},
      {"measurement": "Ratio IC50", "setting": "Homo sapiens [5]", "result": 160}
    ]},
    {"smiles": "C=C(C)C(=O)Nc1cccc(-c2ncnc3[nH]cc(C(=O)OCC)c23)c1", "values": [
      {"measurement": "IC50", "setting": "[6]", "result": 70, "unit": "nM"},
      {"measurement": "pIC50", "setting": "JAK3/JAK1 [7]", "result": 6.55},
      {"measurement": "pIC50", "setting": "JAK3/JAK1 [8]", "result": 5.29},
      {"measurement": "half-life", "setting": "[9]", "result": 0.3, "unit": "h"}
    ]}
  ]
}
